The results in this text go back to patent US20180207069A1, “COSMETIC USE OF A MONOUNSATURATED FATTY ACID OR ONE OF ITS SALTS AND/OR OF ITS ESTERS AS DEODORANT ACTIVE AGENT” (L'OREAL, priority 2012, published 2018).

In brackets after ≈: the same amount, converted by molar mass.

What all share (type): cell-based
Assay [1] concerns Corynebacterium striatum. The assay is described as follows: GC/MS (SPME) analysis of volatile compounds of cultures, C. striatum. To be noted: C. striatum culture, 37° C., 48 hours. As for the experimental part: (§1) The four microorganisms were each cultured in a liquid medium comprising 1.6 g/l of KH2PO4, 5.0 g/l of (NH4)2HPO4, 0.38 g/l of Na2SO4, 3.35 g/l of yeast nitrogen base (difco), 0.5 g/l of yeast extract and 0.5 g/l of MgCl2.6H2O, 1.0 g/l of Tween 80, 1.0 g/l of valine, 1.0 g/l of leucine, 1.0 g/l of isoleucine and 1.0 g/l of methionine. Depending on the analyses to be carried out (profile of the odour by GC/MS or sensory evaluation), the various types of culture medium were prepared either in 2 ml of culture (high-throughput screening format in 96-well microtitration plates) or else 200 ml in Erlenmeyer flasks. For the GC/MS analyses, 2 ml of culture are sufficient but, for the sensory evaluation, for a panel of 12 people, the minimum amount of 200 ml of culture is necessary. […]
(§2) The strains were cultured aerobically at 37° C. for 48 hours. The magnitude of the growth was measured with the optical density (OD) at 600 nm. The cultures were subsequently analyzed for volatile odorous compounds by SPME-GC/MS. […]
(§3) In order to determine the relative amount of volatile compounds present in the culture medium, a solid phase microextraction (SPME; Supelco, USA), gas chromatography coupled with mass spectrometry (HS-SPME-GC/MS; Fisons, USA), is carried out. […] The mass spectra were recorded over an m/z range of 30-250. […]

The subject of assay [2] is Corynebacterium striatum. The assay is described as follows: In vitro sensory evaluation of culture odour, C. striatum. The note with it: petroselinic acid 0.05 g/l in culture medium, panel of 12 experts. As for the experimental part: as §1, with “flasks.” for “flasks. For the GC/MS analyses, 2 ml of culture are sufficient but, for the sensory evaluation, for a panel of 12 people, the minimum amount of 200 ml of culture is necessary.”
as §2
(§4) For the sensory analysis, the minimum amount of 200 ml of culture medium is necessary for a panel of 12 experts. […] Before the sensory analysis, the cultures were sterilized by filtration and the filtrates were stored at 4° C. until analyzed. In a first phase, the profile of the odour was evaluated on the basis of the strongest odours by the sensory panel, with an intensity grade which varies from 1 to 4 (1—a little, 2—moderate, 3—strong and 4—very strong). […]

Assay [3] deals with Staphylococcus epidermidis. The assay is described as follows: GC/MS (SPME) analysis of volatile compounds of cultures, S. epidermidis. The note with it: S. epidermidis culture, 37° C., 48 hours. As for the experimental part: as §1, §2, §3
The subject of assay [4] is Staphylococcus epidermidis. Description: In vitro sensory evaluation of culture odour, S. epidermidis. To be noted: petroselinic acid 0.05 g/l in culture medium, panel of 12 experts. As for the experimental part:
as §1, with “flasks.” for “flasks. For the GC/MS analyses, 2 ml of culture are sufficient but, for the sensory evaluation, for a panel of 12 people, the minimum amount of 200 ml of culture is necessary.”
as §2, §4

In assay [5] the test system is Corynebacterium mucifaciens. The assay is described as follows: GC/MS (SPME) analysis of volatile compounds of cultures, C. mucifaciens. To be noted: C. mucifaciens culture, 37° C., 48 hours. As for the experimental part:
as §1, §2, §3

For assay [6], the system named is Corynebacterium mucifaciens. The assay is described as follows: In vitro sensory evaluation of culture odour, C. mucifaciens. To be noted: petroselinic acid 0.05 g/l in culture medium, panel of 12 experts. Here is the method:
as §1, with “flasks.” for “flasks. For the GC/MS analyses, 2 ml of culture are sufficient but, for the sensory evaluation, for a panel of 12 people, the minimum amount of 200 ml of culture is necessary.”
as §2, §4

Assay [7] concerns Corynebacterium striatum. The assay is described as follows: Minimum Inhibitory Concentration (MIC), C. striatum. The note with it: LMG19648, read-out: Minimum Inhibitory Concentration (MIC) C. striatum.
From the text: (§5) The Minimum Inhibitory Concentration (MIC) on the microorganisms Corynebacterium striatum, Corynebacterium mucifaciens and Corynebacterium xerosis with the following active agents was compared.
Assay [8] has as its system Corynebacterium mucifaciens. The assay is described as follows: Minimum Inhibitory Concentration (MIC), C. mucifaciens. To be noted: LMG19067, read-out: Minimum Inhibitory Concentration (MIC) C. mucifaciens.
From the text: as §5
For a further assay, the system named is Corynebacterium xerosis. Description: Minimum Inhibitory Concentration (MIC), C. xerosis. To be noted: DSM20743, read-out: Minimum Inhibitory Concentration (MIC) C. xerosis.
The mark [9] stands for this setting: acid added to culture medium (petroselinic 0.05, linolenic 0.5, myristic 0.005, azelaic 0.5 g/l).
Setting [10] is: petroselinic acid 0.05 g/l in culture medium.

From the text for Corynebacterium xerosis: as §5

As to `CCCCCCCCCCC/C=C\CCCCC(=O)O` [Petroselinic acid], the amount of aldehydes result (in the assay with Corynebacterium striatum [1] (setting [9]); in [3] (setting [9])) was “significant reduction” each time. Further, the “concentration of ketone compounds” value (in the assay on Corynebacterium striatum [1] (setting [10]); in [3] (setting [10]); in assay [5] (setting [10])) was “greater concentration” in each case. Moreover, the “description of the odour notes” value in the assay on Corynebacterium striatum [2] was “fresher notes with scents described as “green” and “putty””; in assay [4], “fresher notes with scents described as “green” and “putty””. Further, the “resulting odour as perceived by the panel of experts” value (in the assay on Corynebacterium striatum [2]; in [4]) was “more pleasant” in each case. In [5] (setting [9]), the “aldehydes in the odour profile” value is reported as “noticeable reduction”. The “description of the scent” value in assay [6] is on record as “scent described as “putty””. Moreover, in assay [6], the “perception of the odour” value was “more pleasant”.

Take `Oc1cc(Cl)ccc1Oc1ccc(Cl)cc1Cl` [Triclosan, 2,4,4′-trichloro-2′-hydroxydiphenyl ether]: the figures for the MIC (in the assay on Corynebacterium striatum [7]; in [8]; in the assay on Corynebacterium xerosis) were 10 µg/mL (≈ 34.5 µM), 25 µg/mL (≈ 86.3 µM) and 50 µg/mL (≈ 173 µM), respectively.
